Measured values taken from PMC4109310, “An atomic-resolution view of neofunctionalization in the evolution of apicomplexan lactate dehydrogenases” (eLife, 2014).

How the values were obtained:
RbMDH = target: T1, RbMDH (Rickettsia bellii, UniProt Q1RIT9); format: biochemical
T1 construct: gene mdh

AncMDH2 = format: biochemical, synthetic construct; details: 200 uM NADH, 50 mM Tris pH 7.5, 50 mM KCl, 25 C

T1 sequence (Q1RIT9 whole entry, looked up): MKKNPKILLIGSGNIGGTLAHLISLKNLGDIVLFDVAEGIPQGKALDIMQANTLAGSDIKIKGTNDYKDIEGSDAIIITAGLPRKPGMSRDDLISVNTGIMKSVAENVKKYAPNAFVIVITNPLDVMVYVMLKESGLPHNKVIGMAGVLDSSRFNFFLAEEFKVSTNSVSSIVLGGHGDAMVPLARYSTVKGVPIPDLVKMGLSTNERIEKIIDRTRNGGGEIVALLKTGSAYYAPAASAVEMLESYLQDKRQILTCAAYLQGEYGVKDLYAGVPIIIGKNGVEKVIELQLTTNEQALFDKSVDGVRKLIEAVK

Row | SMILES | KM (RbMDH) | Km (AncMDH2)
1 | O=C(O)CC(=O)C(=O)O [oxaloacetate] | RbMDH is a representative α-proteobacterial MDH from Rickettsia bellii | –
2 | CC(=O)C(=O)O [pyruvate] | – | 20 mM
